Measured values from PubChem BioAssay AID222 (DTP/NCI, 2004).
“And” between values parts separate entries of the source, which are not always exact repeats. Equal values may be shown once. Toxic doses and inconclusive results are not listed. How the source made its calls: active means survival T/C of 150% or more; inactive means T/C below 125% in these data.

System: C57BL/6 mice, intracerebral ependymoblastoma, median survival T/C
Experiment: NCI In Vivo Anticancer Drug Screen. Data for tumor model Ependymoblastoma (intracerebral) in C57BL/6 mice
Details: endpoint: median survival time, higher = longer survival
Description: The antitumor activity of compounds was measured in mice bearing transplantable tumors. Survival or tumor size were measured and the results are expressed as the measurement made in the treated group (T) divided by the measurement made in the vehicle treated control group (C). The tumor model used in this assay is Ependymoblastoma (intracerebral) in C57BL/6 mice

Measured: T/C

O=C1c2ccccc2C(=O)c2c(NCCNCCO)ccc(NCCNCCO)c21
inactive: dose: 0.5 mg/kg/injection, schedule: Q01DX005 (ip), vehicle: Klucel (hydroxypropylcellulose) (HPC) 104 % of control and 110 % of control | dose: 0.5 mg/kg/injection, schedule: Q01DX005 (ip), vehicle: water 91 % of control and 103 % of control | dose: 1.0 mg/kg/injection, schedule: Q01DX005 (ip), vehicle: Klucel (hydroxypropylcellulose) (HPC) 102 % of control and 107 % of control | dose: 1.0 mg/kg/injection, schedule: Q01DX005 (ip), vehicle: saline with Tween-80 94 % of control | dose: 1.0 mg/kg/injection, schedule: Q01DX005 (ip), vehicle: saline 94 % of control | dose: 1.0 mg/kg/injection, schedule: Q01DX005 (ip), vehicle: water 105 % of control | dose: 1.0 mg/kg/injection, schedule: Q04DX003 (ip), vehicle: Klucel (hydroxypropylcellulose) (HPC) 113 % of control | dose: 1.0 mg/kg/injection, schedule: Q04DX003 (ip), vehicle: water 103 % of control | dose: 2.0 mg/kg/injection, schedule: Q01DX005 (ip), vehicle: Klucel (hydroxypropylcellulose) (HPC) 97 % of control and 108 % of control | dose: 2.0 mg/kg/injection, schedule: Q01DX005 (ip), vehicle: saline with Tween-80 100 % of control | dose: 2.0 mg/kg/injection, schedule: Q01DX005 (ip), vehicle: saline 108 % of control | dose: 2.0 mg/kg/injection, schedule: Q01DX005 (ip), vehicle: water 94 % of control and 102 % of control | dose: 2.0 mg/kg/injection, schedule: Q04DX003 (ip), vehicle: Klucel (hydroxypropylcellulose) (HPC) 103 % of control | dose: 2.0 mg/kg/injection, schedule: Q04DX003 (ip), vehicle: water 110 % of control | dose: 4.0 mg/kg/injection, schedule: Q01DX001 (ip), vehicle: Klucel (hydroxypropylcellulose) (HPC) 87 % of control | dose: 4.0 mg/kg/injection, schedule: Q01DX001 (ip), vehicle: water 107 % of control | dose: 4.0 mg/kg/injection, schedule: Q01DX005 (ip), vehicle: Klucel (hydroxypropylcellulose) (HPC) 98 % of control and 104 % of control | dose: 4.0 mg/kg/injection, schedule: Q01DX005 (ip), vehicle: other 105 % of control | dose: 4.0 mg/kg/injection, schedule: Q01DX005 (ip), vehicle: saline with Tween-80 104 % of control and 109 % of control | dose: 4.0 mg/kg/injection, schedule: Q01DX005 (ip), vehicle: saline 100 % of control | dose: 4.0 mg/kg/injection, schedule: Q01DX005 (ip), vehicle: water 98 % of control and 105 % of control | dose: 4.0 mg/kg/injection, schedule: Q04DX003 (ip), vehicle: Klucel (hydroxypropylcellulose) (HPC) 104 % of control | dose: 4.0 mg/kg/injection, schedule: Q04DX003 (ip), vehicle: water 96 % of control | dose: 8.0 mg/kg/injection, schedule: Q01DX001 (ip), vehicle: Klucel (hydroxypropylcellulose) (HPC) 95 % of control | dose: 8.0 mg/kg/injection, schedule: Q01DX001 (ip), vehicle: water 101 % of control | dose: 8.0 mg/kg/injection, schedule: Q01DX005 (ip), vehicle: Klucel (hydroxypropylcellulose) (HPC) 104 % of control and 107 % of control | dose: 8.0 mg/kg/injection, schedule: Q01DX005 (ip), vehicle: other 110 % of control | dose: 8.0 mg/kg/injection, schedule: Q01DX005 (ip), vehicle: saline with Tween-80 115 % of control | dose: 8.0 mg/kg/injection, schedule: Q01DX005 (ip), vehicle: water 106 % of control and 108 % of control | dose: 8.0 mg/kg/injection, schedule: Q04DX003 (ip), vehicle: Klucel (hydroxypropylcellulose) (HPC) 108 % of control | dose: 8.0 mg/kg/injection, schedule: Q04DX003 (ip), vehicle: water 119 % of control | dose: 16.0 mg/kg/injection, schedule: Q01DX001 (ip), vehicle: Klucel (hydroxypropylcellulose) (HPC) 98 % of control | dose: 16.0 mg/kg/injection, schedule: Q01DX001 (ip), vehicle: water 107 % of control | dose: 16.0 mg/kg/injection, schedule: Q01DX005 (ip), vehicle: Klucel (hydroxypropylcellulose) (HPC) 110 % of control and 112 % of control | dose: 16.0 mg/kg/injection, schedule: Q01DX005 (ip), vehicle: water 105 % of control | dose: 16.0 mg/kg/injection, schedule: Q04DX003 (ip), vehicle: Klucel (hydroxypropylcellulose) (HPC) 109 % of control | dose: 16.0 mg/kg/injection, schedule: Q04DX003 (ip), vehicle: water 114 % of control | dose: 32.0 mg/kg/injection, schedule: Q01DX001 (ip), vehicle: Klucel (hydroxypropylcellulose) (HPC) 112 % of control | dose: 32.0 mg/kg/injection, schedule: Q01DX001 (ip), vehicle: water 112 % of control | dose: 32.0 mg/kg/injection, schedule: Q01DX005 (ip), vehicle: Klucel (hydroxypropylcellulose) (HPC) 93 % of control and 117 % of control | dose: 32.0 mg/kg/injection, schedule: Q04DX003 (ip), vehicle: Klucel (hydroxypropylcellulose) (HPC) 103 % of control | dose: 32.0 mg/kg/injection, schedule: Q04DX003 (ip), vehicle: water 109 % of control | dose: 64.0 mg/kg/injection, schedule: Q01DX001 (ip), vehicle: Klucel (hydroxypropylcellulose) (HPC) 105 % of control | dose: 64.0 mg/kg/injection, schedule: Q01DX001 (ip), vehicle: water 115 % of control | dose: 64.0 mg/kg/injection, schedule: Q04DX003 (ip), vehicle: Klucel (hydroxypropylcellulose) (HPC) 99 % of control | dose: 128.0 mg/kg/injection, schedule: Q01DX001 (ip), vehicle: Klucel (hydroxypropylcellulose) (HPC) 98 % of control | dose: 256.0 mg/kg/injection, schedule: Q01DX001 (ip), vehicle: Klucel (hydroxypropylcellulose) (HPC) 104 % of control
